Test results: article PMC5773532, “Crystal structure of an assembly intermediate of respiratory Complex II” (Nature Communications, 2018)

Experiments:
E. coli FrdA subunit = target: T1, E. coli FrdA subunit (Escherichia coli, UniProt P00363); assay: biochemical; format: binding
T1 construct: made in house; host or cells: E. coli RP-2 (RP437ΔfrdΔsdh)
Experimental: (§1) To interrogate dicarboxylate orientation in solution, we focused on oxaloacetate. When oxaloacetate is correctly oriented in the active site, it induces a characteristic spectrum (charge transfer band) attributed to π–π interactions between the oxygen of oxaloacetate and the isoalloxazine ring of FAD.
(§2) Studies were performed using a HP8453 UV/Vis spectrophotometer (Agilent, Santa Clara, CA). Binding experiments were carried out in 50 mM Bis-Tris-Propane (pH 8.0) at 25 °C. The isolated flavoproteins were added to a cuvette and titrated by the sequential addition of ligand solutions. The wavelength giving the highest amplitude change for each ligand was selected from the difference spectra for the analysis. The dissociation constant (Kd) values were obtained by the analysis of the changes in absorbance vs total ligand concentration. The Kd was determined according Eq. 1:1 ΔA=ΔAmaxET+LT+Kd-ET+LT+Kd^2-4ETLT/2ET where ET is a total protein concentration, LT is a total ligand concentration, ΔA and ΔAmax are the absorbance changes at a given and saturation ligand concentration. The protein concentration used for FrdA, SdhA, and quinol:fumarate reductase (QFR) were in a range of 7 to 9 µM. […]

SdhA+SdhE = SdhA+SdhE (Escherichia coli, UniProt P0AC41); assay: Optical difference spectroscopy, dicarboxylate binding to SdhA in the presence of SdhE; details: read-out: Kd^malonate
Experimental: (§3) If this mechanistic proposal for covalent flavinylation is correct, we would anticipate that the FrdA-SdhE assembly intermediate would bind with reasonable affinity to biologically relevant dicarboxylates. […] Thus, the shifted architecture of SdhE-bound FrdA maintains dicarboxylate binding, supporting our mechanism.
(§4) Studies were performed using a HP8453 UV/Vis spectrophotometer (Agilent, Santa Clara, CA). […] The isolated flavoproteins were added to a cuvette and titrated by the sequential addition of ligand solutions. The wavelength giving the highest amplitude change for each ligand was selected from the difference spectra for the analysis. The dissociation constant (Kd) values were obtained by the analysis of the changes in absorbance vs total ligand concentration. The Kd was determined according Eq. 1:1 ΔA=ΔAmaxET+LT+Kd-ET+LT+Kd^2-4ETLT/2ET where ET is a total protein concentration, LT is a total ligand concentration, ΔA and ΔAmax are the absorbance changes at a given and saturation ligand concentration. The protein concentration used for FrdA, SdhA, and quinol:fumarate reductase (QFR) were in a range of 7 to 9 µM. […] The concentration of the isolated flavoprotein was determined in 0.5% SDS using the FAD extinction coefficient ε^445 = […].

FrdA+SdhE = target: T2, FrdA+SdhE (Escherichia coli, UniProt P00363); assay: Optical difference spectroscopy, dicarboxylate binding to FrdA in the presence of SdhE
T2 construct: made in house; host or cells: FrdA: E. coli RP-2; SdhE for this assay: not described
Experimental: as §3, §4

E. coli SdhA subunit = E. coli SdhA subunit (Escherichia coli, UniProt P0AC41); assay: Optical difference spectroscopy, ligand binding to isolated SdhA subunit; details: read-out: Kd^malonate
Experimental: as §1, §2

[1] = target: T3, Escherichia coli quinol:fumarate reductase flavoprotein subunit FrdA (isolated subunit) (E. coli, UniProt P00363 1-602, covalent FAD on H44 (8α-N(3)-histidyl linkage)); assay: optical difference spectroscopy (FAD absorbance titration); isolated flavoprotein (7 to 9 µM) in the cuvette titrated with SdhE; 50 mM Bis-Tris-Propane pH 8.0, 25 °C; 387–458 nm; fit of absorbance change against total ligand concentration; details: both partners purified
T3 construct: FrdA, flavoprotein subunit of E. coli quinol:fumarate reductase (FrdABCD), isolated subunit without FrdBCD; The methods describe only FrdA in lysate; also called FrdA subunit; Complex II flavoprotein subunit; source: 'purified, isolated FrdA' for spectroscopy and kinetics (purification not described)
T3 sequence (looked up): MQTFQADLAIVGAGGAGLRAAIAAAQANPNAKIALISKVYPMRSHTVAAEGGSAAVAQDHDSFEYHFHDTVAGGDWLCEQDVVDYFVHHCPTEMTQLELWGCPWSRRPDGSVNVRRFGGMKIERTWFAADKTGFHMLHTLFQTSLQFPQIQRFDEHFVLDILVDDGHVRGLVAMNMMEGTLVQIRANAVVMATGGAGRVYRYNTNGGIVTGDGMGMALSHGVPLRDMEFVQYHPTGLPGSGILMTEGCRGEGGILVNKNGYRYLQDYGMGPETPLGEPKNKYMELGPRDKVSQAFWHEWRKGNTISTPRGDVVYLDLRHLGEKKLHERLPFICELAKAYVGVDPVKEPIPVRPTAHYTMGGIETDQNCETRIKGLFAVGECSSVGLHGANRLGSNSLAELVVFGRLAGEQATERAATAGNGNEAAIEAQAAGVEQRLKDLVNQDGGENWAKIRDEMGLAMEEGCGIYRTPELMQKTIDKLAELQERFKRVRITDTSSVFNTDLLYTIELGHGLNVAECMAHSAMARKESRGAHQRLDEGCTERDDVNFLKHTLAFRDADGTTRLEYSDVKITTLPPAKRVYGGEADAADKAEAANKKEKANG

[2] = target: T4, Escherichia coli succinate:quinone oxidoreductase flavoprotein subunit SdhA (isolated subunit) (E. coli, UniProt P0AC41 1-588); assay: cell-based or functional assay
T4 sequence (looked up): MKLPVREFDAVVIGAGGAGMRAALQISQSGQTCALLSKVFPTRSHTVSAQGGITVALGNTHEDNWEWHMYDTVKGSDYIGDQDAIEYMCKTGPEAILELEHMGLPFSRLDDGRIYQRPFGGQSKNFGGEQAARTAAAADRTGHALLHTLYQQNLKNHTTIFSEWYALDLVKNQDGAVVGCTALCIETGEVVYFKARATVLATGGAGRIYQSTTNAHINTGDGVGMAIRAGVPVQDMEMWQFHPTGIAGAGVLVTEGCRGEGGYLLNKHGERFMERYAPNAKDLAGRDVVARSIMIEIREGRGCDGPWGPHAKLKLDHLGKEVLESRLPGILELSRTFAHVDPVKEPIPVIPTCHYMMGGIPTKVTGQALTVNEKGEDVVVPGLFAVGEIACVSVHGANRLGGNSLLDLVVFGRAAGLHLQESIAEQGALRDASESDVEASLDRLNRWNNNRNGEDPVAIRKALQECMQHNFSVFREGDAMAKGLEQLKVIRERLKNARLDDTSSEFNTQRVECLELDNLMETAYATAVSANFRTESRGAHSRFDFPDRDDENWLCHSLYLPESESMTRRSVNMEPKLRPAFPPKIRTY

[3] = target: T3, Escherichia coli quinol:fumarate …; assay: cell-based or functional assay

Q: `O=C(O)CC(=O)O` [malonate] was tested. Which Kd (E. coli FrdA subunit) did it give?
A: The Kd was 26 ± 3 µM.

Q: And the Kd (SdhA+SdhE)?
A: Its Kd is 60 ± 5 µM.

Q: What about the “increase of Kd^malonate in the presence of SdhE” value (FrdA+SdhE; presence vs absence of SdhE, stated for both FrdA and SdhA subunits) of the same molecule?
A: The value was 5- to 7 fold.

Q: And the Kd (FrdA+SdhE; read-out: Kd^malonate)?
A: Its Kd is 180 ± 20 µM.

Q: And the Kd (E. coli SdhA subunit)?
A: Its Kd is 11 ± 1 µM.

B1: Escherichia coli SdhE assembly factor (natural protein, E. coli)
chain: MDINNKARIHWACRRGMRELDISIMPFFEHEYDSLSDDEKRIFIRLLECDDPDLFNWLMNHGKPADAELEMMVRLIQTRNRERGPVAI
notes: SdhE, FAD assembly factor of E. coli Complex II, as used in optical titrations and kinetics; construct not described
Q: Which Kd [1] does the source give for B1 here?
A: Its Kd is 0.7 ± 0.1 µM.

Q: And the “inhibition by SdhE of the succinate:DCIP reductase reaction of isolated SdhA, pH 8.0, 30 °C; IC50^SdhE” value [2]?
A: Its value is 1.5 µM.

Q: What about the “inhibition by SdhE of the succinate:DCIP reductase reaction of isolated FrdA (0.45 µM), pH 8.0, 30 °C; IC50^SdhE” value [3] of the same molecule?
A: Its value is 1.2 µM.
